In one assay the test system is rat's soleus muscle. The settings on record: rat soleus incubated with GLP1; cited from earlier work.
The next assay concerns db/db muscle fibers. Briefly: Osmotic shock-induced Ca2+ sparks in isolated FDB muscle fibers (confocal imaging). The class given is cell-based, mouse. Here is the method: (§1) The Ca spark response in skeletal muscle is compromised in mg29−/− and diabetic muscle. […] Considering that we see a similar functional phenotype with glucose handling between the mg29−/− animal and diabetic patients, we tested if the we would see similar defects in Ca signaling as well. Ca spark measurement is performed in 13-16 weeks old control wild type, type I diabetic mice (akita) or type II diabetic mice (db/db). Non-fasted serum glucose levels are recorded from blood samples taken from the tail vein immediately before sacrificing the mice. Following an established protocol in our laboratory, we measured Ca sparks in muscle fibers isolated from the flexor digitorum brevis (FDB). We observed no increase in the frequency of spontaneous resting Ca sparks in db/db muscle fibers (data not shown). […] The degree that the spark frequency decreased could be directly correlated with the blood glucose level of the animal, with more diabetic animals displaying less sparks than those animals with lower blood glucose levels (FIG. 9b).
(§2) FDB skeletal muscle fiber isolation. Mice were sacrificed by cervical dislocation and hind limbs were surgically removed and placed into Isotonic Tyrode with measured osmolarity of 290 mOsm. Flexor Digitorum Brevis (FDB) muscles were excised and transferred into Tyrode supplemented with 0.2% type I collagenase (Sigma C-0310), for 90 minutes at 37° C. Muscle fibers were gently dissociated by several passages through a small diameter pipette. Isolated FDB muscle fibers were plated onto a ΔTC glass-bottomed dishes (Bioptech Inc.) in 1 ml of Tyrode buffer.
(§3) Confocal Ca^2+ imaging and spark analysis. Following individual muscle fiber isolation, the fibers were plated onto a dish containing isotonic tyrode solution (290 mOsm). 10 μM Fluo4-AM, a membrane permeable cytosolic Ca^2+ indicator dye is loaded onto the dish and left incubated for 60 minutes in room temperature along with different drug treatment. Replacing 50% of the dish volume with isotonic Tyrode for three times washed excess dye from the dish. Using brightfield confocal microscopy, fibers were then be screened by light microscopy for intact sarcolemmal membranes and regular striation patterns. Muscle fibers that fulfill these criteria were bathed in the isotonic solution, a physiological resting condition. Measurement of SR Ca^2+ release was performed on a BioRad Radiance-2100 confocal microscope equipped with Argon laser ([…]), Helium-Neon laser (632 nm), and a 40×, 1.3 NA oil immersion objective. An acquisition rate of 2 ms perline was used for line scan imaging, while serial x-y images were acquired at 3.08 s per frame (512×512 pixels). Osmotic shock to disrupt the juxtaposition of membrane coupling was applied to analyze whether knockdown of Bin1 alters the Ca^2+ sparks activity. Initially, fiber was perfused with isotonic solution for 30 seconds prior to applying hypotonic Tyrode solution (170 mOsm) for 1 minute that induces membrane swelling. […] For each animal, 3-4 fibers were treated by osmotic shock, and from each fiber 2 images (comprised of 30000 2 ms linescans of 512 pixels) were recorded. Image analysis and normalization of linescan intensities to the calculated resting fluorescence (F0) and determination of the amplitude and duration of individual events was performed using custom routines for IDL software. […]
(§4) Solutions. […] 5 CaCl2, 2 MgCl2 and 10 HEPES (ph 7.2), with measured osmolality of 290 mOsm. […]

A further assay has as its system WT muscle fibers. Described as above. The class given is cell-based, mouse. The settings on record: GLP1 treatment. How it is done: as §1, §2, §3, §4
In assay [1] the test system is extensor digitorum longus (EDL) of non-fasted db/db mice. Briefly: Ex vivo contractility assay, force recovery after fatigue. On the set-up: species or system mouse. Here is the method: Application of GLP1 can improve contractility in skeletal muscle from diabetic mice. […] This leads us to test whether the increased Ca sparks activity can be translated as increased muscle force as measured by ex vivo contractility assays. The extensor digitorum longus (EDL) of non-fasted db/db mice is mounted to a force transducer and electrically stimulated following the protocol shown in FIG. 11. A 10 fold higher dose of GLP1 (100 nM) used in the Ca^2+ spark experiments is applied to the contractility study, to take into account the increased mass of the anatomical muscle over the isolated muscle fiber. Muscles were tested for their maximum force (Tmax) produced at various frequencies and then fatigued using rapid pulses of an electric field, which was then followed by another measurement of Tmax. Following 1 hour of GLP1 application, this stimulation protocol was repeated on the same muscles (FIG. 11a). Calculating the ratio of Tmax before and after GLP1 application will show how the application of GLP1 can influence the recovery of muscle function following fatigue.
Intact EDL and soleus muscle isolation. Intact EDL and soleus muscles were dissected from mice and maintained in Isotonic Tyrode solution supplemented with 12 mM glucose, continuously bubbled with 100% O2. […] Muscles were mounted vertically on a glass-stimulating apparatus (Radnoti) with platinum electrodes and attached to a movable isometric force transducer and to a stationary anchor, which allowed muscles to be stretched until both maximal forces for a given frequency and the frequency producing Tmax were obtained.
Force measurements during fatigue. A Powerlab computer-interface program (ADInstruments) was used to control the electrical stimulation protocols and to record, digitize and store force output data. […] Forces were normalized into gram after calibration and all data were analyzed by Origin software (OriginLab). […]
as §4

Assay [2] is described as follows: Insulin challenge, blood glucose after bolus IP injection. Type of assay: in vivo, mouse. The settings on record: IP injection of insulin. How it is done:
FIG. 6. Mice null for MG29 (mg29−/−) display compromised response to insulin challenge. Fasting blood glucose levels were measured in mice following a bolus IP injection of insulin at time 0 on chart. […] Mean±SEM is shown. ANOVA is used for analysis with **: P<0.01;***P<0.001.

The conditions of assay [3]: patients treated with Januvia; cited from earlier work.

Entries after “also recorded” stand apart in the source; their conditions may differ. Like-named read-outs stand apart in the source and are kept apart here. No end group written: not given here.

This is an account of results in patent publication US8603993B2, “Compositions and methods modulating MG29 for the treatment of diabetes” (University of Medicine and Dentistry of New Jersey, priority 2009, dated 2013).

On to “GLP1 7-36 Amide (HAEGTFTSDVSSYLEGQAAKEFIAWLVKGR-NH2; UniProt P01275 98-127, looked up) [Glucagon like peptide 1 (GLP1) of pro-glucagon origin is a type of incretin hormone; obtained from Sigma]”, for which, in the assay on rat's soleus muscle, the PKB activity result was “increased”. Besides, the glycogen synthase activity result with rat's soleus muscle is given as “increased”. In addition, the “Ca2+ spark events / frequency” value in the assay on db/db muscle fibers (db/db FDB fibers after osmotic shock, GLP1 10 nM for 1 hour) is “significantly improves; also recorded: can be reversed; also recorded: significant increased”. Further, the “peripheral subsarcolemmal distribution of Ca2+ sparks” value with db/db muscle fibers (db/db fibers, GLP1 treatment) is listed as “does not alter”; in the assay with WT muscle fibers (WT fibers) it was “does not alter”. For the same compound, the “GLP1 effect on Ca2+ sparks by blood glucose group” value in the assay on db/db muscle fibers (db/db mice, high blood glucose >330 mg/dL vs lower blood glucose <260 mg/dL) was “maximum activity on db/db mice that exhibit high hyperglycemia condition”. In the assay on WT muscle fibers (WT muscle), the “Ca2+ spark frequency” value was “minimal increases”. The twitch ratio result in assay [1] (after GLP1 treatment, 100 nM) is “no significant change”. Further, the “Tmax recovery ratio (maximal force after fatigue to before fatigue)” value in assay [1] (db/db EDL, 100 nM GLP1 for 1 h) is “back to the levels seen in the WT muscles; also recorded: improves muscle force”. The force frequency relationship result in assay [1] (db/db muscle, 100 nM GLP1) is “did not significantly alter”.

In the case of insulin, the blood glucose level entry in assay [2] (mg29-/- mice) is “much less effect”. Besides, the blood glucose entry in assay [2] (wild type control animals) was “significant decrease”.

On to `N[C@@H](CC(=O)N1CCn2c(nnc2C(F)(F)F)C1)Cc1cc(F)c(F)cc1F` [Januvia, Sitagliptin], for which the blood glucose entry in assay [3] is listed as “normalization”.
